The values that follow are results of earlier work, collected in patent publication US20120149888A1, “SYNTHESIS OF ARA-2'-O-METHYL-NUCLEOSIDES, CORRESPONDING PHOSPHORAMIDITES AND OLIGONUCLEOTIDES INCORPORATING NOVEL MODIFICATIONS FOR BIOLOGICAL APPLICATION IN THERAPEUCTICS, DIAGNOSTICS, G- TETRAD FORMING OLIGONUCLEOTIDES AND APTAMERS” (priority 2009, published 2012).

“Also recorded” adds a separate entry of the source. Read-outs that look alike come from different tables or passages of the source.

In one series the test system is AKR/r-AzCR. The settings on record: mouse, in vivo.
The test system of series [1] is L1210 line resistant to MGGH. The settings on record: in vivo.
For series [2], the system named is equilibrative NBMPR-sensitive nucleoside transporter (es). To be noted: growth-inhibitory concentrations.
For series [3], the system named is human erythroleukemia cell line (K562).
Series [4] relates to hydroxyurea-, vincristine-, VLB-, TSC-, cortisone- and MGGH-resistant mouse leukemias.
The next series concerns L1210/C95. To be noted: in vivo.
The test system of a further series is Sarcoma 180. To be noted: in vivo.
For another series, the system named is AKR/r-AzCdR. The settings on record: mouse, in vivo.
A further series concerns P815/FU. To be noted: in vivo.
In a further series the test system is Raji leukemia. To be noted: mouse, in vivo.
A further series relates to L1210/MP(III). The settings on record: mouse, in vivo.
A further series deals with Raji Burkitt's lymphoma. The settings on record: rat, in vivo.
Series [5] relates to nucleoside carrier-dependent transport. To be noted: in vitro.
The conditions of series [6]: in vivo.
For another series, the system named is P815. The settings on record: 1β-D-Arabinofuranosylcytosine-resistant P815.
The next series has as its system L1210/CA. To be noted: 1β-D-Arabinofuranosylcytosine-resistant L1210/CA.
In a further series the test system is L1210/ara-C. The settings on record: L1210/ara-C (Schabel et al., 1971).
Series [7] concerns ara-C-resistant neoplasms. To be noted: several other ara-C-resistant neoplasms.
The test system of series [8] is explants of intact rat colonic mucosa.
The next series relates to L1210/MP. To be noted: 6-Mercaptopurine-resistant L1210/MP.
The next series has as its system Ehrlich ascites (EAC-R2). The settings on record: 6-Methyl thiopurine ribonucleoside-resistant Ehrlich ascites (EAC-R2).
Another series concerns Ehrlich ascites (ETGR11). To be noted: Thioguanine-resistant Ehrlich ascites (ETGR11).
Series [9] deals with T-lymphoblasts, B-lymphoblasts.
Series [10] addresses purine nucleoside phosphorylase (PNP) (Homo sapiens, UniProt P00491).

Sequence of purine nucleoside phosphorylase (PNP) (P00491 whole entry, species assumed): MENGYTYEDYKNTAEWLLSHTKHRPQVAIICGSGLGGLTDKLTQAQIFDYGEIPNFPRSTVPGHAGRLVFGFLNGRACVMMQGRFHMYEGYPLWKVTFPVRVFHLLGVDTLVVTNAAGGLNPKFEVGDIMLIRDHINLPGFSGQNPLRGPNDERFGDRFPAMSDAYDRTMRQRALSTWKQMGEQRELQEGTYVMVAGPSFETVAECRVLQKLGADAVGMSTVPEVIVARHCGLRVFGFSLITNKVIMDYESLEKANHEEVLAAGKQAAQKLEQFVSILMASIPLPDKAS

Regarding `Nc1ccn([C@@H]2O[C@H](CO)[C@@H](O)[C@@H]2O)c(=O)n1` [Ara-C, 1-β-D-Arabinofuranosylcytosine], the “Response to chemotherapeutic drugs: Cross-resistant” value with AKR/r-AzCR and in the series with AKR/r-AzCdR was “cross-resistant; also recorded: Ara-C” in each case. Moreover, the “response of MGGH-resistant L1210 line to the drug” value in [1] is “collaterally sensitive”. For the same molecule, the expression of es entry in series [2] was “no significant increase”. In addition, the “resistance of K562R to ara-C compared with K562S” value in [3] (3H-dThd incorporation, MTT dye reduction and clonogenicity) is “approximately 15 fold”. In addition, the “ara-CTP accumulated by K562S versus K562R” value in series [3] (4-h exposure, 10 microM) is “seven times more”. Also, in series [3] (4-h exposure, 10 microM), the “more ara-C incorporated into DNA by K562S versus K562R” value is “approximately 250%”. Further, the “activity against drug-resistant mouse leukemias” value in series [4] is listed as “active”. Besides, in the series on L1210/C95, the “response of L1210/C95 to the drug” value is “sensitive”. Besides, the “Response to chemotherapeutic drugs: Same as parent line” value (shortened to “Response … as parent line”) was “Ara-C” in the series with Sarcoma 180, “retained the same sensitivity; also recorded: Ara-C” in the series on P815/FU and “retained sensitivity; also recorded: Ara-C” with L1210/MP(III). The “animals that survived (>80 days)” value with Raji leukemia is recorded as “none”. In addition, the values for the mean survival time with Raji leukemia and with Raji Burkitt's lymphoma were 34.2 days and 13.2 days, respectively. Also, in series [5], the “cellular sensitivity in presence of nitrobenzylmercaptopurine riboside and dipyridamol” value is “reduced strongly”.
For `COc1nc(N)nc2c1ncn2[C@@H]1O[C@H](CO)[C@@H](O)[C@@H]1O` [Nelarabine], the “dose toxicity in the clinical trials” value in [6] is on record as “neurotoxicity”.
`NC(=O)NO` [hydroxyurea]: the figures for the “Response … as parent line” value with P815, in the series with L1210/CA and in the series on L1210/ara-C were “Hudroxyurea”, “Hydroxyurea” and “Hydroxyurea”, respectively. In addition, the expression of es entry in series [2] is on record as “increases”. Further, the “cross-resistance of ara-C-resistant neoplasms to the drug” value in series [7] was “no cross-resistance”. Further, in [8], the “incorporation of tritiated TdR into DNA” value is recorded as “reduced”.
Take `CN(C)/N=N/c1[nH]cnc1C(N)=O` [DIC]: the “Response … as parent line” value with L1210/MP is given as “DIC”.
As to `Sc1ncnc2nc[nH]c12` [6-Mercaptopurine], the “Response to chemotherapeutic drugs: Cross-resistant” value in the series with Ehrlich ascites (EAC-R2) is 6-Mercaptopurine^b; in the series on Ehrlich ascites (EAC-R2) (listed as 6-MP), “partially cross-resistant”; in the series on Ehrlich ascites (ETGR11) it was 6-Mercaptopurine.
On to `Nc1nc2c(ncn2[C@@H]2O[C@H](CO)[C@@H](O)[C@@H]2O)c(=O)[nH]1` [araG, N-9-[β-D-Arabinofuranosyl]guanine], for which the “efficiency in T-lymphoblasts compared to B-lymphoblasts” value in series [9] was “higher efficiency”. Further, the “degradation by purine nucleoside phosphorylase (PNP)” value in series [10] is recorded as “relatively resistant”.
